Values joined by “and” are separate entries in the source; they are usually repeats but may differ in a detail not shown here. Identical values can stand only once.
Legend:
[1] = tested on: Plasmodium falciparum F32-TEM (artemisinin-sensitive twin line); assay: Standard chemosensitivity assay (SYBR Green I), F32-TEM; format: cell-based; details: Plasmodium falciparum; F32-TEM, 48 h incubation, SYBR Green I; mean ± SEM of 3 experiments (* mean of 2); read-out: Antiplasmodial Activity: IC50, F32-TEM
Summary of the method: (§1)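 Both parasite lines grown at 2% hematocrit in human red cells with 5% human serum, 37 °C, 5% CO2, then exposed to drug for 48 h in triplicate.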

[2] = tested on: ART-resistant parasites F32-ART at the quiescent stage; assay: Modified QSA, 24-h exposure; format: cell-based, Plasmodium falciparum; details: DHA 700 nM, compound at its IC90, 24-h exposure
Description: Epidrugs were tested at their IC90 values. In the present study, quiescence was induced using 3 µM of ART or 700 nM of DHA [28]. Thus, D-sorbitol synchronized ring-stage parasites at 3% parasitemia and 2% hematocrit (5 mL of culture per well in 6-well plates) were first exposed to 6 h of ART or DHA to induce quiescence and then to 48 h of the combination “ART or DHA + compound to be tested”. The combinations “ART 6 h/ART 48 h” or “DHA 6 h/DHA 48 h” were used as controls. The compounds were evaluated, in parallel, on proliferating parasites, i.e., without any pre-treatment. […] The parasitemia for each condition was then microscopically monitored every 2 days. […] When relevant, statistical significance between results obtained for the conditions “ART/ART” and “ART/ART + compound to be tested” or “DHA/DHA” and “DHA/DHA + compound to be tested” was determined by a Log Rank (Mantel Cox) test using GraphPad Prism version 7.05. […]
To collect enough material for immunoblotting, we performed the analysis after a 24-h exposure of DHA-treated parasites to the epidrug and in parallel evaluated the activity of the three epidrugs in a modified QSA, in which quiescent parasites were exposed to the drug to be tested for 24 instead of 48 h, as in our previous experiments (Figure 2).

[3] = tested on: H4ac4; assay: Immunoblotting, histone mark abundance in F32-ART parasites; format: cell-based, Plasmodium falciparum; details: 90nM
Description: (§2) Abundance of methylated and acetylated histone was determined in parasite cultures in different conditions: “not-treated”, “DHA 24 h”, “DHA 6 h/DHA 24 h” and “DHA 6 h/DHA + compound to be tested 24 h”. At the end of the treatments, parasite cultures were washed in RPMI-1640 and then twice in PBS 1× before red blood cell lysis with 0.075% saponin (Sigma-Aldrich) in PBS. Parasite ghosts were washed 3 times in PBS before incubating the ghosts with E1A lysis buffer (50 mM Hepes pH 7.5; 250 mM NaCl; 5 mM EDTA; 0.1% Triton X-100, 1 mM DTT, 0.2 mM PMSF supplemented with complete Mini EDTA-free protease inhibitor cocktail (Roche®, Basel, Switzerland)) for 15 min. Ghosts were then sonicated for 3 × 15s ON/OFF cycles to shear parasite membranes. Debris were pelleted by centrifuging for 15 min at 13,800× g and 4 °C, and supernatants (containing parasitic proteins) were then collected. Protein concentrations were determined using BCA assay (Bio-Rad, Hercules, CA, USA) according to the manufacturer’s instructions. For each sample, 10 µg of proteins were mixed with 4× sample buffer (10 mL 50% Glycerol, 5 mL 0.5 M Tris HCl pH 6.8, 4 mL 20% SDS, 0.02% Bromophenol blue for a total solution volume of 20 mL) and 100 mM DTT and then separated on 15% SDS-PAGE gels in Laemmli running buffer. Gels were then wet-transferred O/N at 20 V onto PVDF membranes. Membranes were blocked in TBST for 1 h at room temperature. Bottom parts were then probed with histone antibodies while upper parts were probed with PFALDOLASE antibody (Abcam, ab38905, Cambridge, UK) at 1:20,000 dilution. The following primary antibodies were used: anti-H3K4me1 (Abcam, ab8895); anti-H3K4me2 (Abcam, ab35356); anti-H3K9me2 (Abcam, ab1220); anti-H3K9me3 (Millipore, 07-442, Burlington, MA, USA); anti-tetra-acetyl H4 (Millipore, 06-866); anti-H4K8Ac (Millipore, 07-328); anti-H4K20me3 (Abcam, ab9053); anti-H3K4me3 (Diagenode) and anti-H3K9Ac (Millipore, 07-352) at 1:10,000. The following secondary antibodies were used: anti-rabbit IgG-Peroxidase produced in goat (Sigma-Aldrich) or anti-mouse IgG-Peroxidase (Sigma-Aldrich); at 1:20,000 dilutions. Blots were developed using ECL Prime Western Blotting (GE Healthcare, Chicago, IL, USA) and read on a Chemidoc touch imaging software. Densitometry analysis was performed by using ImageLab software from Bio-Rad. To determine if variations in histone abundances were statistically significant, immunoblotting experiments were performed on 3 biological replicates and each run was performed twice.

[4] = tested on: H4K8ac; assay: as above; format: cell-based, Plasmodium falciparum; details: 90nM
Description: as §2

[5] = tested on: Jurkat; details: read-out: Cytotoxicity: CC50 (Jurkat), data from literature ref 41; cited from earlier work
[6] = tested on: Plasmodium falciparum F32-ART (artemisinin-resistant strain); assay: Standard chemosensitivity assay (SYBR Green I), F32-ART; format: cell-based; details: for IC50: Plasmodium falciparum, F32-ART, 48 h incubation, SYBR Green I, mean ± SEM of 3 experiments (* mean of 2), read-out: Antiplasmodial Activity: IC50, F32-ART; for Selectivity Index CC50/IC50: ratio cytotoxicity (mammalian cell type of the CC50)/antiplasmodial activity on F32-ART
Summary of the method: as §1

[7] = tested on: ART-resistant parasites F32-ART at the quiescent stage; assay: Quiescent-stage Survival Assay (QSA), 48-h exposure; format: cell-based, Plasmodium falciparum
Description: The sensitivity of the ART-resistant parasites F32-ART at the quiescent stage towards the different molecules was determined using the QSA (Quiescent-stage Survival Assay), as previously described.
Epidrugs were tested at their IC90 values. In the present study, quiescence was induced using 3 µM of ART or 700 nM of DHA [28]. Thus, D-sorbitol synchronized ring-stage parasites at 3% parasitemia and 2% hematocrit (5 mL of culture per well in 6-well plates) were first exposed to 6 h of ART or DHA to induce quiescence and then to 48 h of the combination “ART or DHA + compound to be tested”. The combinations “ART 6 h/ART 48 h” or “DHA 6 h/DHA 48 h” were used as controls. The compounds were evaluated, in parallel, on proliferating parasites, i.e., without any pre-treatment. After drug exposure, parasite cultures were washed with 40 mL of RPMI-1640 medium and cultured in drug-free conditions supplemented with 10% human serum in new wells. The parasitemia for each condition was then microscopically monitored every 2 days. Culture media were renewed twice a week and 25 µL of fresh red blood cells were added once a week. Obtained data were used to perform Kaplan–Meier survival analyses considering censored data. The outcome was defined as the day when parasite cultures reached the initial parasitemia (3%) and data were considered as censored if no parasite recrudescence was observed during the 30-day experiment timeframe. When relevant, statistical significance between results obtained for the conditions “ART/ART” and “ART/ART + compound to be tested” or “DHA/DHA” and “DHA/DHA + compound to be tested” was determined by a Log Rank (Mantel Cox) test using GraphPad Prism version 7.05. For the best compounds targeting histones, in order to compare western blots data, modified QSAs were carried out by comparing “DHA 6 h/DHA 24 h” versus “DHA 6 h/DHA + compound to be tested 24 h”.

[8] = tested on: 661W; set-up: method as in PMID 29048427; details: data from literature ref 44, read-out: Cytotoxicity: CC50 (661W); cited from earlier work
[9] = 24 h, F32-ART ring stage proliferating, 3 replicates (Fig 3A)
[10] = DHA 6 h/DHA + apicidin 24 h, F32-ART DHA-treated parasites, 3 replicates (Fig 3E)

SMILES: CCC(=O)CCCCC[C@@H]1NC(=O)[C@H]2CCCCN2C(=O)[C@H]([C@@H](C)CC)NC(=O)[C@H](Cc2cn(OC)c3ccccc23)NC1=O [Apicidin]
- IC50 [1]: 0.036 ± 0.005 µM
- Recrudescence in modified QSA, DHA 6 h/DHA + compound 24 h vs DHA 6 h/DHA 24 h [2]: no difference in recrudence time
- Fold change of H4ac4 abundance, apicidin vs DMSO [3, 9]: increase and 1.70 and 1.40 and 1.39
- Fold change of H4ac4 abundance, apicidin, quiescent stage [3, 10]: increase and 2.21 and 2.92 and 2.08
- Fold change of H4K8ac abundance, apicidin vs DMSO [4, 9]: 0.98 and 1.16 and 0.96
- Fold change of H4K8ac abundance, apicidin, quiescent stage [4, 10]: increase and 1.81 and 2.83 and 2.40
- CC50 [5]: 10 µM
- IC50 [6]: 0.036 ± 0.009 µM
- Selectivity Index CC50/IC50 [6]: 280
- Delay in parasite recrudescence time (difference between median recrudescence times), ART/ART + compound vs ART/ART ([7]; quiescence induced with ART 3 µM 6 h, then 48 h ART + compound at its IC90): 8 days
- Delay in recrudescence time, DHA/DHA + compound vs DHA/DHA ([7]; quiescence induced with DHA 700 nM 6 h, then 48 h DHA + compound at its IC90): slightly shorter delay

SMILES: CN1CCc2c(c3ccccc3n2Cc2ccc(C(=O)NO)cc2)C1 [Tubastatin A]
- IC50 [1]: 8 µM
- CC50 [8]: > 10 µM
- IC50 [6]: 7 µM
- Selectivity Index CC50/IC50 [6]: >1.4
